The assay deals with T1, human TLR7 (Homo sapiens, UniProt Q9NYK1).
T1 sequence (Q9NYK1 27-1049): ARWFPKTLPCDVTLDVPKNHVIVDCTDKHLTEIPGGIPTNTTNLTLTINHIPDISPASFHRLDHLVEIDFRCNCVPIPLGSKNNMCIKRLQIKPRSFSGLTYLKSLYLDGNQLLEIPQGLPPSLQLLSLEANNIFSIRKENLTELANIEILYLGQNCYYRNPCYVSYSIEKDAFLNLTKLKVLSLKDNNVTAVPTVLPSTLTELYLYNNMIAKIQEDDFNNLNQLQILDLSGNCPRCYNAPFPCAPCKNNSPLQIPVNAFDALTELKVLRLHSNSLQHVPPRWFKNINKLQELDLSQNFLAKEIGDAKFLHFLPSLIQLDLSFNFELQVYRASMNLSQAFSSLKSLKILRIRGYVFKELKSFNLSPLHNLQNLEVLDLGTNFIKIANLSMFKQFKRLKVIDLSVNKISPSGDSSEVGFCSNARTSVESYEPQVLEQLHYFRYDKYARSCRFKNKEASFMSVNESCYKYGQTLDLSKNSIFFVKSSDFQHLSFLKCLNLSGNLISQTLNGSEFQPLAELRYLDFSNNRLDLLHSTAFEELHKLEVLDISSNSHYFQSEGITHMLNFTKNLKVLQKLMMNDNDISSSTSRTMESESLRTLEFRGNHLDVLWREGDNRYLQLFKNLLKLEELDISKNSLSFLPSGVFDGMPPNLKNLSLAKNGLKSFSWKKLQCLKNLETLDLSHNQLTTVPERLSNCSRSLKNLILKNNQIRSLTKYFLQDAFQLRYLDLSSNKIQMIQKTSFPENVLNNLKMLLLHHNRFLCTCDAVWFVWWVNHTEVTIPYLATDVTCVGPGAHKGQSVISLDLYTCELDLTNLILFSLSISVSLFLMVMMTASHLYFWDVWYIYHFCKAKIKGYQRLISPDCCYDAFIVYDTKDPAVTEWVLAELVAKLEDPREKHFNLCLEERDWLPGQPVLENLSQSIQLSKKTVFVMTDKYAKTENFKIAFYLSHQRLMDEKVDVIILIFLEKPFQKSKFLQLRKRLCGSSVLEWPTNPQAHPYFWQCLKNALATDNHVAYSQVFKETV
Briefly: HEK293-Blue-hTLR-7 cells assay (SEAP reporter, R848 stimulation). Format: cell-based. The conditions noted are these: HEK293-Blue-hTLR7 cells, R848 ligand, 20 hrs incubation. As for the experimental part: The following tests were carried out in order to determine the activity of the compounds of formula (I) in HEK293-Blue-hTLR-7/8/9 cells assay.
HEK293-Blue-hTLR-7 Cells Assay:
A stable HEK293-Blue-hTLR-7 cell line was purchased from InvivoGen (Cat. #: hkb-htlr7, San Diego, Calif., USA). These cells were originally designed for studying the stimulation of human TLR7 by monitoring the activation of NF-κB. A SEAP (secreted embryonic alkaline phosphatase) reporter gene was placed under the control of the IFN-β minimal promoter fused to five NF-κB and AP-1-binding sites. The SEAP was induced by activating NF-κB and AP-1 via stimulating HEK-Blue hTLR7 cells with TLR7 ligands. Therefore the reporter expression was declined by TLR7 antagonist under the stimulation of a ligand, such as R848 (Resiquimod), for incubation of 20 hrs. The cell culture supernatant SEAP reporter activity was determined using QUANTI-Blue™ kit (Cat. #: rep-qb1, Invivogen, San Diego, Ca, USA) at a wavelength of 640 nm, a detection medium that turns purple or blue in the presence of alkaline phosphatase.
HEK293-Blue-hTLR7 cells were incubated at a density of 250,000-450,000 cells/mL in a volume of 170 μL in a 96-well plate in Dulbecco's Modified Eagle's medium (DMEM) containing 4.5 g/L glucose, 50 U/mL penicillin, […], […], 2 mM L-glutamine, 10% (v/v) heat-inactivated fetal bovine serum with addition of 20 μL test compound in a serial dilution in the presence of final DMSO at 1% and 10 μL of 20 uM R848 in above DMEM, perform incubation under 37° C. in a CO2 incubator for 20 hrs. Then 20 μL of the supernatant from each well was incubated with 180 μL Quanti-blue substrate solution at 37° C. for 2 hrs and the absorbance was read at 620-655 nm using a spectrophotometer. The signalling pathway that TLR7 activation leads to downstream NF-κB activation has been widely accepted, and therefore similar reporter assay was modified for evaluating TLR7 antagonist.
On to `N#Cc1ccc(N2C[C@H](CN3CCC4(CCNC4)CC3)[C@@H](C(F)(F)F)C2)c2nccnc12` [Example 14, 8-[(3S,4R)-3-(2,8-Diazaspiro[4.5]decan-8-ylmethyl)-4-(trifluoromethyl)pyrrolidin-1-yl]quinoxaline-5-carbonitrile], for which inhibition was half-maximal at 0.043 µM (IC50). `N#Cc1ccc(N2CC(CN3CCC4(CCNCC4)CC3)C3(CC3)C2)c2nccnc12` (stereo not drawn) [Example 16, 8-[7-(3,9-Diazaspiro[5.5]undecan-3-ylmethyl)-5-azaspiro[2.4]heptan-5-yl]quinoxaline-5-carbonitrile] gave an IC50 of 0.113 µM. `C[C@H]1CN(c2ccc(C#N)c3nccnc23)C[C@@H]1CN1CCC2(CCNCC2)CC1` [Example 17, 8-[(3S,4R)-3-(3,9-diazaspiro[5.5]undecan-3-ylmethyl)-4-methyl-pyrrolidin-1-yl]quinoxaline-5-carbonitrile] registered an IC50 of 0.128 µM.

`N#Cc1ccc(N2CC(CN3C[C@H]4CNC[C@H]4C3)C3(CC3)C2)c2nccnc12` (stereo partly drawn) [Example 18, 8-[7-[[(3aR,6aS)-2,3,3a,4,6,6a-hexahydro-H-pyrrolo[3,4-c]pyrrol-5-yl]methyl]-5-azaspiro[2.4]heptan-5-yl]quinoxaline-5-carbonitrile] came in with an IC50 of 0.137 µM. With `FC(F)(F)c1ccc(N2CC(CN3CCNCC3)C3(CC3)C2)c2nccnc12` (stereo not drawn) [Example 20, 5-[7-(Piperazin-1-ylmethyl)-5-azaspiro[2.4]heptan-5-yl]-8-(trifluoromethyl)quinoxaline] the figure was 0.156 µM; with `N#Cc1ccc(N2CC(CN3CCC4(CCCNC4)C3)C3(CC3)C2)c2nccnc12` (stereo not drawn) [Example 22, 8-[7-(2,9-Diazaspiro[4.5]decan-2-ylmethyl)-5-azaspiro[2.4]heptan-5-yl]quinoxaline-5-carbonitrile], 0.201 µM; with `C[C@H]1CN(c2ccc(C#N)c3ncccc23)C[C@@H]1CN1CCC2(CCNCC2)CC1` [Example 23, 5-[(3S,4R)-3-(3,9-diazaspiro[5.5]undecan-3-ylmethyl)-4-methyl-pyrrolidin-1-yl]quinoline-8-carbonitrile], 0.251 µM. With `N#Cc1ccc(N2CC(CN3CC4(CCCNC4)C3)C3(CC3)C2)c2nccnc12` (stereo not drawn) [Example 24, 8-[7-(2,8-Diazaspiro[3.5]nonan-2-ylmethyl)-5-azaspiro[2.4]heptan-5-yl]quinoxaline-5-carbonitrile] the figure was 0.298 µM; with `N#Cc1ccc(N2CC(CN3C4CCC3CC(N)C4)C3(CC3)C2)c2nccnc12` (stereo not drawn) [Example 25, 8-[7-[(3-Amino-8-azabicyclo[3.2.1]octan-8-yl)methyl]-5-azaspiro[2.4]heptan-5-yl]quinoxaline-5-carbonitrile], 0.311 µM. To `N#Cc1ccc(N2C[C@H](CN3CCC(N)CC3)[C@@H](C(F)(F)F)C2)c2nccnc12` [Example 26, 8-[(3S,4R)-3-[(4-Amino-1-piperidyl)methyl]-4-(trifluoromethyl)pyrrolidin-1-yl]quinoxaline-5-carbonitrile] belongs 0.055 µM; to `C[C@H]1CN(c2ccc(C#N)c3nccnc23)C[C@@H]1CN1CCC2(CCNC2)C1` (stereo partly drawn) [Example 30, 8-[(3S,4R)-3-(2,7-diazaspiro[4.4]nonan-2-ylmethyl)-4-methyl-pyrrolidin-1-yl]quinoxaline-5-carbonitrile], 0.382 µM.

In turn, `FC(F)(F)c1ccc(N2CC(CN3CCC4(CCNCC4)CC3)C3(CC3)C2)c2nccnc12` (stereo not drawn) [Example 31, 3-[[5-[8-(Trifluoromethyl)quinoxalin-5-yl]-5-azaspiro[2.4]heptan-7-yl]methyl]-3,9-diazaspiro[5.5]undecane] showed an IC50 of 0.385 µM. With `N#Cc1ccc(N2CC(CN3CCC4(CCNCC4)C3)C3(CC3)C2)c2nccnc12` (stereo not drawn) [Example 32, 8-[7-(2,8-Diazaspiro[4.5]decan-2-ylmethyl)-5-azaspiro[2.4]heptan-5-yl]quinoxaline-5-carbonitrile] the figure was 0.402 µM; with `C[C@H]1CN(c2ccc(C#N)c3ncccc23)C[C@@H]1CN1CCC2(CCNC2)C1` (stereo partly drawn) [Example 35, 5-[(3S,4R)-3-(2,7-diazaspiro[4.4]nonan-2-ylmethyl)-4-methyl-pyrrolidin-1-yl]quinoline-8-carbonitrile], 0.468 µM. Compound `N#Cc1ccc(N2CCC(CN3CCC4(CCNCC4)CC3)C2)c2nccnc12` (stereo not drawn) [Example 37, 8-[3-(3,9-Diazaspiro[5.5]undecan-3-ylmethyl)pyrrolidin-1-yl]quinoxaline-5-carbonitrile] displayed an IC50 of 0.651 µM.

Take `N#Cc1ccc(N2CC(CNC3CCCNCC3)C3(CC3)C2)c2nccnc12` (stereo not drawn) [Example 39, 8-[7-[(Azepan-4-ylamino)methyl]-5-azaspiro[2.4]heptan-5-yl]quinoxaline-5-carbonitrile]: half-maximal inhibition (IC50) was put at 0.709 µM. To `C[C@@H]1CN(c2ccc(C(F)(F)F)c3nccnc23)C[C@H]1CNC1CCCNCC1` (stereo partly drawn) [Example 40] belongs 0.746 µM; to `FC(F)(F)c1ccc(N2CC(CN3C[C@H]4CNC[C@H]4C3)C3(CC3)C2)c2nccnc12` (stereo partly drawn) [Example 41, 5-[7-[[(3aR,6aS)-2,3,3a,4,6,6a-hexahydro-H-pyrrolo[3,4-c]pyrrol-5-yl]methyl]-5-azaspiro[2.4]heptan-5-yl]-8-(trifluoromethyl)quinoxaline], 0.821 µM.

As to `N#Cc1ccc(N2CC(CN3CC4(CC(N)C4)C3)C3(CC3)C2)c2nccnc12` (stereo not drawn) [Example 42, 8-[7-[(6-Amino-2-azaspiro[3.3]heptan-2-yl)methyl]-5-azaspiro[2.4]heptan-5-yl]quinoxaline-5-carbonitrile], the IC50 came to 0.867 µM. With `N#Cc1ccc(N2CC(CN3CCC4(CCNC4)C3)C3(CC3)C2)c2cccnc12` (stereo not drawn) [Example 43, 5-[7-(2,7-Diazaspiro[4.4]nonan-2-ylmethyl)-5-azaspiro[2.4]heptan-5-yl]quinoline-8-carbonitrile] the figure was 0.899 µM; with `N#Cc1ccc(N2C[C@H](CN3CCC4(CCCNC4)CC3)[C@@H](C(F)(F)F)C2)c2nccnc12` [Example 45, 8-[(3S,4R)-3-(2,9-diazaspiro[5.5]undecan-9-ylmethyl)-4-(trifluoromethyl)pyrrolidin-1-yl]quinoxaline-5-carbonitrile], 0.049 µM; with `N#Cc1ccc(N2C[C@H](CN3CCC4(CCNCC4)C3)[C@@H](C(F)(F)F)C2)c2nccnc12` [Example 46, 8-[(3S,4R)-3-(2,8-diazaspiro[4.5]decan-2-ylmethyl)-4-(trifluoromethyl)pyrrolidin-1-yl]quinoxaline-5-carbonitrile], 0.093 µM. To `N#Cc1ccc(N2C[C@H](CN3CC4(CC(N)C4)C3)[C@@H](C(F)(F)F)C2)c2nccnc12` [Example 47, 8-[(3S,4R)-3-[(6-amino-2-azaspiro[3.3]heptan-2-yl)methyl]-4-(trifluoromethyl)pyrrolidin-1-yl]quinoxaline-5-carbonitrile] belongs 0.088 µM; to `N#Cc1ccc(N2C[C@H](CN3CC4(CCNCC4)C3)[C@@H](C(F)(F)F)C2)c2nccnc12` [Example 48, 8-[(3S,4R)-3-(2,7-diazaspiro[3.5]nonan-2-ylmethyl)-4-(trifluoromethyl)pyrrolidin-1-yl]quinoxaline-5-carbonitrile], 0.051 µM.
